Data from ChEMBL document CHEMBL1201861, “Genomics of Drug Sensitity in Cancer screening data, Wellcome Trust Sanger Institute”.
Where “and” joins values, the source holds several entries; their conditions need not be identical. Identical values can stand only once. Where a SMILES comes first, the peptide text is derived from it. The star is where a group is joined. Cbz = O=C(OCc1ccccc1)*

How the values were obtained:
Experiment in all cases: cells
SCH = assay type: functional, cell-based, Homo sapiens;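 note: growth inhibition of human SCH cells, read out in a cell viability assay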
Description: SANGER: Inhibition of human SCH cell growth in a cell viability assay.

TE-8 = assay type: functional, cell-based, Homo sapiens;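 note: growth inhibition of TE-8 cells, measured with a cell viability readout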
Description: SANGER: Inhibition of human TE-8 cell growth in a cell viability assay.

NCI-H69 = assay type: functional, cell-based, Homo sapiens;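 note: growth inhibition of the cell line, read out with a cell viability assay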
Description: SANGER: Inhibition of human NCI-H69 cell growth in a cell viability assay.

GCIY = assay type: functional, cell-based, Homo sapiens;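 note: growth inhibition of the human GCIY cell line, read out by a cell viability assay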
Description: SANGER: Inhibition of human GCIY cell growth in a cell viability assay.

RPMI-8226 = assay type: functional, cell-based, Homo sapiens
Description: SANGER: Inhibition of human RPMI-8226 cell growth in a cell viability assay.

NCI-H1838 = assay type: functional, cell-based, Homo sapiens;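 note: growth inhibition of NCI-H1838 cells, determined with a cell viability readout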
Description: SANGER: Inhibition of human NCI-H1838 cell growth in a cell viability assay.

ES7 = assay type: functional, cell-based, Homo sapiens;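 note: growth inhibition of cultured human ES7 cells, read out as cell viability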
Description: SANGER: Inhibition of human ES7 cell growth in a cell viability assay.

TE-12 = assay type: functional, cell-based, Homo sapiens;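 note: growth inhibition of TE-12 cells, read out by a cell viability assay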
Description: SANGER: Inhibition of human TE-12 cell growth in a cell viability assay.

EOL1 = assay type: functional, cell-based, Homo sapiens;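 note: growth inhibition of EoL-1 cells, read out by a cell viability assay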
Description: SANGER: Inhibition of human EoL-1-cell cell growth in a cell viability assay.

KINGS-1 = assay type: functional, cell-based, Homo sapiens;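 note: cell viability assay measuring suppression of KINGS-1 cell growth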
Description: SANGER: Inhibition of human KINGS-1 cell growth in a cell viability assay.

A101D = assay type: functional, cell-based, Homo sapiens;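 note: growth inhibition of the cell line, measured with a viability assay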
Description: SANGER: Inhibition of human A101D cell growth in a cell viability assay.

SK-NEP-1 = assay type: functional, cell-based, Homo sapiens;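 note: growth inhibition of human SK-NEP-1 cells, read out by a cell viability assay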
Description: SANGER: Inhibition of human SK-NEP-1 cell growth in a cell viability assay.

NOMO-1 = assay type: functional, cell-based, Homo sapiens;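 note: growth inhibition of human NOMO-1 cells measured by a cell viability assay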
Description: SANGER: Inhibition of human NOMO-1 cell growth in a cell viability assay.

COLO-668 = assay type: functional, cell-based, Homo sapiens
Description: SANGER: Inhibition of human COLO-668 cell growth in a cell viability assay.

U-87 MG = assay type: functional, cell-based, Homo sapiens, U-87MG ATCC;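 note: growth inhibition of the cells measured with a viability assay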
Description: SANGER: Inhibition of human U-87-MG cell growth in a cell viability assay.

COLO-829 = assay type: functional, cell-based, Homo sapiens
Description: SANGER: Inhibition of human COLO-829 cell growth in a cell viability assay.

KNS-42 = assay type: functional, cell-based; conditions: Homo sapiens;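 note: growth inhibition of KNS-42 cells, read out with a cell viability assay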
Description: SANGER: Inhibition of human KNS-42 cell growth in a cell viability assay.

K562 = assay type: functional, cell-based, Homo sapiens
Description: SANGER: Inhibition of human K-562 cell growth in a cell viability assay.

CTV-1 = assay type: functional, cell-based, Homo sapiens;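 note: growth inhibition of the cell line, read out with a cell viability assay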
Description: SANGER: Inhibition of human CTV-1 cell growth in a cell viability assay.

BV-173 = assay type: functional, cell-based, Homo sapiens
Description: SANGER: Inhibition of human BV-173 cell growth in a cell viability assay.

CAS-1 = assay type: functional, cell-based, Homo sapiens;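 note: growth inhibition of CAS-1 cells, measured with a cell viability assay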
Description: SANGER: Inhibition of human CAS-1 cell growth in a cell viability assay.

COLO-320-HSR = assay type: functional, cell-based, Homo sapiens;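 note: growth inhibition of COLO-320-HSR cells, determined with a cell viability assay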
Description: SANGER: Inhibition of human COLO-320-HSR cell growth in a cell viability assay.

NB10 = assay type: functional, cell-based, Homo sapiens;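 note: growth inhibition of NB10 cells, read out by a cell viability assay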
Description: SANGER: Inhibition of human NB10 cell growth in a cell viability assay.

ATN-1 = assay type: functional, cell-based, Homo sapiens;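 note: growth inhibition of human ATN-1 cells, read out with a cell viability assay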
Description: SANGER: Inhibition of human ATN-1 cell growth in a cell viability assay.

SK-N-DZ = assay type: functional, cell-based, Homo sapiens; conditions: read-out: IC50;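 note: growth inhibition of the cancer cell line, read out through a viability assay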
Description: SANGER: Inhibition of human SK-N-DZ cell growth in a cell viability assay.

MFM-223 = assay type: functional, cell-based, Homo sapiens
Description: SANGER: Inhibition of human MFM-223 cell growth in a cell viability assay.

P30-OHK = assay type: functional, cell-based, Homo sapiens;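 note: growth inhibition of the P30-OHK cell line, read out with a cell viability assay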
Description: SANGER: Inhibition of human P30-OHK cell growth in a cell viability assay.

QIMR-WIL = assay type: functional, cell-based, Homo sapiens;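 note: growth inhibition of QIMR-WIL cells, read out with a cell viability assay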
Description: SANGER: Inhibition of human QIMR-WIL cell growth in a cell viability assay.

SW872 = assay type: functional, cell-based, Homo sapiens;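 note: growth inhibition of SW872 cells, read out by a viability assay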
Description: SANGER: Inhibition of human SW872 cell growth in a cell viability assay.

ETK-1 = assay type: functional, cell-based, Homo sapiens;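 note: growth inhibition of human ETK-1 cells, read out with a cell viability assay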
Description: SANGER: Inhibition of human ETK-1 cell growth in a cell viability assay.

HEL = assay type: functional, cell-based, Homo sapiens;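 note: growth inhibition of HEL cells, read out with a cell viability assay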
Description: SANGER: Inhibition of human HEL cell growth in a cell viability assay.

LU-139 = assay type: functional, cell-based, Homo sapiens
Description: SANGER: Inhibition of human LU-139 cell growth in a cell viability assay.

D283 Med = assay type: functional, cell-based, Homo sapiens
Description: SANGER: Inhibition of human D-283MED cell growth in a cell viability assay.

NCI-H1355 = assay type: functional, cell-based, Homo sapiens;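 note: growth inhibition of human NCI-H1355 cells, read out by a cell viability assay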
Description: SANGER: Inhibition of human NCI-H1355 cell growth in a cell viability assay.

SF-268 = assay type: functional, cell-based, Homo sapiens;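 note: growth inhibition of SF-268 cells determined with a cell viability assay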
Description: SANGER: Inhibition of human SF268 cell growth in a cell viability assay.

EW-18 = assay type: functional, cell-based, Homo sapiens; conditions: read-out: IC50;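 note: growth inhibition of EW-18 cells, read out by a cell viability assay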
Description: SANGER: Inhibition of human EW-18 cell growth in a cell viability assay.

A4-Fuk = assay type: functional, cell-based, Homo sapiens;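 note: growth inhibition of A4-Fuk cells, read out by a cell viability assay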
Description: SANGER: Inhibition of human A4-Fuk cell growth in a cell viability assay.

CW-2 = assay type: functional, cell-based, Homo sapiens;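 note: growth inhibition of CW-2 cells, read out by a cell viability assay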
Description: SANGER: Inhibition of human CW-2 cell growth in a cell viability assay.

RH-1 = assay type: functional, cell-based, Homo sapiens;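 note: growth inhibition of human RH-1 cells, read out with a cell viability assay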
Description: SANGER: Inhibition of human RH-1 cell growth in a cell viability assay.

HCC2218 = assay type: functional, cell-based, Homo sapiens;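 note: cell viability assay read-out, with IC50 given as the concentration that inhibits growth of the cell line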
Description: SANGER: Inhibition of human HCC2218 cell growth in a cell viability assay.

COLO-800 = assay type: functional, cell-based, Homo sapiens;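 note: growth inhibition of COLO-800 cells, read out with a cell viability assay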
Description: SANGER: Inhibition of human COLO-800 cell growth in a cell viability assay.

LNCaP-Clone-FGC = assay type: functional, cell-based, Homo sapiens
Description: SANGER: Inhibition of human LNCaP-Clone-FGC cell growth in a cell viability assay.

HCC1187 = assay type: functional, cell-based, Homo sapiens;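 note: growth inhibition of HCC1187 cells, read out with a cell viability assay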
Description: SANGER: Inhibition of human HCC1187 cell growth in a cell viability assay.

HAL-01 = assay type: functional, cell-based, Homo sapiens;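 note: growth inhibition of human HAL-01 cells, read out with a cell viability assay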
Description: SANGER: Inhibition of human HAL-01 cell growth in a cell viability assay.

MSTO-211H = assay type: functional, cell-based, Homo sapiens
Description: SANGER: Inhibition of human MSTO-211H cell growth in a cell viability assay.

LB1047-RCC = assay type: functional, cell-based, Homo sapiens;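 note: inhibition of cell growth, determined with a cell viability assay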
Description: SANGER: Inhibition of human LB1047-RCC cell growth in a cell viability assay.

NEC8 = assay type: functional, cell-based, Homo sapiens;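 note: growth inhibition of human NEC8 cells, read out by a cell viability assay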
Description: SANGER: Inhibition of human NEC8 cell growth in a cell viability assay.

EKVX = assay type: functional, cell-based, Homo sapiens;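 note: growth inhibition of human EKVX cells, read out with a cell viability assay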
Description: SANGER: Inhibition of human EKVX cell growth in a cell viability assay.

SMILES: O=C1NC(=O)c2c1c(-c1ccccc1Cl)cc1[nH]c3ccc(O)cc3c21
- IC50 (SCH; Homo sapiens, SCH): > 2 µM
- IC50 (TE-8; Homo sapiens, TE-8): > 2 µM
- IC50 (NCI-H69; Homo sapiens, NCI-H69): > 2 µM
- IC50 (GCIY; Homo sapiens, GCIY): > 2 µM
- IC50 (RPMI-8226; Homo sapiens, RPMI-8226): > 2 µM
- IC50 (NCI-H1838; Homo sapiens, NCI-H1838): > 2 µM
- IC50 (ES7; Homo sapiens, ES7): > 2 µM
- IC50 (TE-12; Homo sapiens, TE-12): > 2 µM
- IC50 (EOL1; Homo sapiens, EOL1): > 2 µM
- IC50 (KINGS-1; Homo sapiens, KINGS-1): > 2 µM
- IC50 (A101D; Homo sapiens, A101D): > 2 µM
- IC50 (SK-NEP-1; Homo sapiens, SK-NEP-1): > 2 µM
- IC50 (NOMO-1; Homo sapiens, NOMO-1): > 2 µM
- IC50 (COLO-668; Homo sapiens, COLO-668): > 2 µM
- IC50 (U-87 MG; Homo sapiens, U-87 MG): > 2 µM
- IC50 (COLO-829; Homo sapiens, COLO-829): > 2 µM
- IC50 (KNS-42): > 2 µM
- IC50 (K562; Homo sapiens, K562): > 2 µM
- IC50 (CTV-1; Homo sapiens, CTV-1): > 2 µM
- IC50 (BV-173; Homo sapiens, BV-173): 0.434 µM
- IC50 (CAS-1; Homo sapiens, CAS-1): > 2 µM
- IC50 (COLO-320-HSR; Homo sapiens, COLO-320-HSR): 1.82 µM
- IC50 (NB10; Homo sapiens, NB10): > 2 µM
- IC50 (ATN-1; Homo sapiens, ATN-1): 0.316 µM
- IC50 (SK-N-DZ; Homo sapiens, SK-N-DZ): > 2 µM
- IC50 (MFM-223; Homo sapiens, MFM-223): > 2 µM
- IC50 (P30-OHK; Homo sapiens, P30-OHK): 1.91 µM
- IC50 (QIMR-WIL; Homo sapiens, QIMR-WIL): 0.135 µM
- IC50 (SW872; Homo sapiens, SW872): > 2 µM
- IC50 (ETK-1; Homo sapiens, ETK-1): > 2 µM
- IC50 (HEL; Homo sapiens, HEL): 1.22 µM
- IC50 (LU-139; Homo sapiens, LU-139): > 2 µM
- IC50 (D283 Med; Homo sapiens, D283 Med): > 2 µM
- IC50 (NCI-H1355; Homo sapiens, NCI-H1355): > 2 µM
- IC50 (SF-268; Homo sapiens, SF-268): > 2 µM
- IC50 (EW-18; Homo sapiens, EW-18): > 2 µM
- IC50 (A4-Fuk; Homo sapiens, A4-Fuk): > 2 µM
- IC50 (CW-2; Homo sapiens, CW-2): > 2 µM
- IC50 (RH-1; Homo sapiens, RH-1): > 2 µM
- IC50 (HCC2218; Homo sapiens, HCC2218): > 2 µM
- IC50 (COLO-800; Homo sapiens, COLO-800): > 2 µM
- IC50 (LNCaP-Clone-FGC; Homo sapiens, LNCaP-Clone-FGC): > 2 µM
- IC50 (HCC1187; Homo sapiens, HCC1187): > 2 µM
- IC50 (HAL-01; Homo sapiens, HAL-01): 1.16 µM
- IC50 (MSTO-211H; Homo sapiens, MSTO-211H): > 2 µM

SMILES: COc1cc(N2CCC(N3CCN(C)CC3)CC2)ccc1Nc1ncc(Cl)c(Nc2ccccc2S(=O)(=O)C(C)C)n1 [TAE-684]
- IC50 (TE-8; Homo sapiens, TE-8): 0.429 µM
- IC50 (NCI-H69; Homo sapiens, NCI-H69): 1.56 µM
- IC50 (GCIY; Homo sapiens, GCIY): 0.955 µM
- IC50 (RPMI-8226; Homo sapiens, RPMI-8226): 0.635 µM
- IC50 (NCI-H1838; Homo sapiens, NCI-H1838): > 2 µM
- IC50 (ES7; Homo sapiens, ES7): > 2 µM
- IC50 (TE-12; Homo sapiens, TE-12): 0.533 µM
- IC50 (EOL1; Homo sapiens, EOL1): > 2 µM
- IC50 (KINGS-1; Homo sapiens, KINGS-1): > 2 µM
- IC50 (A101D; Homo sapiens, A101D): 1.57 µM
- IC50 (SK-NEP-1; Homo sapiens, SK-NEP-1): 0.235 µM
- IC50 (NOMO-1; Homo sapiens, NOMO-1): > 2 µM
- IC50 (COLO-668; Homo sapiens, COLO-668): > 2 µM
- IC50 (LB1047-RCC; Homo sapiens, LB1047-RCC): 0.545 µM
- IC50 (U-87 MG; Homo sapiens, U-87 MG): > 2 µM
- IC50 (COLO-829; Homo sapiens, COLO-829): > 2 µM
- IC50 (KNS-42): > 2 µM
- IC50 (NEC8; Homo sapiens, NEC8): 0.413 µM
- IC50 (K562; Homo sapiens, K562): > 2 µM
- IC50 (CTV-1; Homo sapiens, CTV-1): 0.556 µM
- IC50 (BV-173; Homo sapiens, BV-173): > 2 µM
- IC50 (CAS-1; Homo sapiens, CAS-1): 1.98 µM
- IC50 (COLO-320-HSR; Homo sapiens, COLO-320-HSR): 0.198 µM
- IC50 (NB10; Homo sapiens, NB10): 1.57 µM
- IC50 (ATN-1; Homo sapiens, ATN-1): 0.333 µM
- IC50 (SK-N-DZ; Homo sapiens, SK-N-DZ): 1.78 µM
- IC50 (MFM-223; Homo sapiens, MFM-223): > 2 µM
- IC50 (P30-OHK; Homo sapiens, P30-OHK): > 2 µM
- IC50 (QIMR-WIL; Homo sapiens, QIMR-WIL): > 2 µM
- IC50 (SW872; Homo sapiens, SW872): 0.567 µM
- IC50 (ETK-1; Homo sapiens, ETK-1): 1.34 µM
- IC50 (HEL; Homo sapiens, HEL): 1.15 µM
- IC50 (LU-139; Homo sapiens, LU-139): > 2 µM
- IC50 (D283 Med; Homo sapiens, D283 Med): 1.22 µM
- IC50 (NCI-H1355; Homo sapiens, NCI-H1355): 0.552 µM
- IC50 (SF-268; Homo sapiens, SF-268): 0.84 µM
- IC50 (EW-18; Homo sapiens, EW-18): > 2 µM
- IC50 (A4-Fuk; Homo sapiens, A4-Fuk): 0.0557 µM
- IC50 (CW-2; Homo sapiens, CW-2): > 2 µM
- IC50 (RH-1; Homo sapiens, RH-1): > 2 µM
- IC50 (EKVX; Homo sapiens, EKVX): > 2 µM
- IC50 (HCC2218; Homo sapiens, HCC2218): > 2 µM
- IC50 (COLO-800; Homo sapiens, COLO-800): 0.767 µM
- IC50 (LNCaP-Clone-FGC; Homo sapiens, LNCaP-Clone-FGC): > 2 µM
- IC50 (HCC1187; Homo sapiens, HCC1187): 1.86 µM
- IC50 (HAL-01; Homo sapiens, HAL-01): 1.15 µM
- IC50 (MSTO-211H; Homo sapiens, MSTO-211H): > 2 µM

SMILES: CC(C)C[C@@H](C=O)NC(=O)[C@H](CC(C)C)NC(=O)[C@H](CC(C)C)NC(=O)OCc1ccccc1 [MG-132] (Cbz-Leu-Leu-Leu-aldehyde)
- IC50 (SCH; sch): > 1 µM
- IC50 (TE-8; Homo sapiens, TE-8): 0.343 µM
- IC50 (TE-8; te-8): 0.27 µM
- IC50 (NCI-H69; nci-h69): 0.151 µM and > 1 µM
- IC50 (GCIY; gciy): > 1 µM
- IC50 (RPMI-8226; rpmi-8226): > 1 µM and 0.423 µM
- IC50 (NCI-H1838; nci-h1838): > 1 µM
- IC50 (ES7; es7): 0.897 µM and > 1 µM
- IC50 (TE-12; Homo sapiens, TE-12): > 1 µM
- IC50 (TE-12; te-12): > 1 µM
- IC50 (EOL1; Homo sapiens, EOL1): > 1 µM
- IC50 (EOL1; eol1): > 1 µM
- IC50 (KINGS-1; kings-1): 0.148 µM and 0.628 µM
- IC50 (A101D; a101d): 0.0328 µM and 0.301 µM
- IC50 (SK-NEP-1; sk-nep-1): > 1 µM
- IC50 (NOMO-1; Homo sapiens, NOMO-1): > 1 µM
- IC50 (NOMO-1; nomo-1): > 1 µM
- IC50 (COLO-668; Homo sapiens, COLO-668): > 1 µM
- IC50 (COLO-668; colo-668): > 1 µM
- IC50 (LB1047-RCC; Homo sapiens, LB1047-RCC): > 1 µM
- IC50 (LB1047-RCC; lb1047-rcc): > 1 µM
- IC50 (U-87 MG; Homo sapiens, U-87 MG): > 1 µM
- IC50 (U-87 MG; u-87mg atcc): > 1 µM
- IC50 (COLO-829; colo-829): 0.243 µM and > 1 µM
- IC50 (NEC8; nec8): 0.12 µM and > 1 µM
- IC50 (K562; k562): > 1 µM
- IC50 (CTV-1; ctv-1): > 1 µM
- IC50 (BV-173; bv-173): > 1 µM
- IC50 (CAS-1; cas-1): 0.155 µM and > 1 µM
- IC50 (COLO-320-HSR; colo-320-hsr): > 1 µM
- IC50 (NB10; nb10): > 1 µM
- IC50 (ATN-1; atn-1): > 1 µM
- IC50 (SK-N-DZ; sk-n-dz): > 1 µM
- IC50 (MFM-223; mfm-223): > 1 µM
- IC50 (P30-OHK; p30-ohk): > 1 µM
- IC50 (QIMR-WIL; qimr-wil): > 1 µM
- IC50 (SW872; sw872): 0.657 µM and > 1 µM
- IC50 (ETK-1; Homo sapiens, ETK-1): > 1 µM
- IC50 (ETK-1; etk-1): > 1 µM
- IC50 (HEL; hel): 0.185 µM and > 1 µM
- IC50 (LU-139; lu-139): > 1 µM
- IC50 (D283 Med; d283 med): > 1 µM
- IC50 (NCI-H1355; nci-h1355): 0.686 µM and > 1 µM
- IC50 (SF-268; sf-268): 0.656 µM and > 1 µM
- IC50 (EW-18; ew-18): > 1 µM
- IC50 (A4-Fuk; a4-fuk): > 1 µM
- IC50 (CW-2; cw-2): > 1 µM
- IC50 (RH-1; rh-1): > 1 µM
- IC50 (EKVX; ekvx): > 1 µM
- IC50 (HCC2218; Homo sapiens, HCC2218): > 1 µM
- IC50 (HCC2218; hcc2218): > 1 µM
- IC50 (COLO-800; colo-800): > 1 µM
- IC50 (LNCaP-Clone-FGC; Homo sapiens, LNCaP-Clone-FGC): > 1 µM
- IC50 (LNCaP-Clone-FGC; lncap-clone-fgc): > 1 µM
- IC50 (HCC1187; hcc1187): > 1 µM
- IC50 (HAL-01; hal-01): > 1 µM
- IC50 (MSTO-211H; msto-211h): > 1 µM
